Test results published in paper PMC9966845, “Targeting Siderophore-Mediated Iron Uptake in M. abscessus: A New Strategy to Limit the Virulence of Non-Tuberculous Mycobacteria” (Pharmaceutics, 2023).
Where two headings read alike, the source gives them in different places.

Legend:
[1] = test system: C=C(O[C@@H]1C=C(C(=O)O)C=C[C@H]1O)C(=O)O; experiment: purified protein, by the assay type; conditions: other: substrate of Mab-SaS, 37 °C, pH 7.5
Mab-SaS [2] = target: T1, Mab-SaS (Mycobacteroides abscessus, UniProt B1MAQ5); experiment: Mab-SaS inhibition, fluorimetric enzymatic assay; format: biochemical, M. abscessus; conditions: for remaining activity at 100 µM: 100 μM ligand concentration, read-out: %RA (residual enzymatic activity)
T1 sequence (B1MAQ5 entry or part of it): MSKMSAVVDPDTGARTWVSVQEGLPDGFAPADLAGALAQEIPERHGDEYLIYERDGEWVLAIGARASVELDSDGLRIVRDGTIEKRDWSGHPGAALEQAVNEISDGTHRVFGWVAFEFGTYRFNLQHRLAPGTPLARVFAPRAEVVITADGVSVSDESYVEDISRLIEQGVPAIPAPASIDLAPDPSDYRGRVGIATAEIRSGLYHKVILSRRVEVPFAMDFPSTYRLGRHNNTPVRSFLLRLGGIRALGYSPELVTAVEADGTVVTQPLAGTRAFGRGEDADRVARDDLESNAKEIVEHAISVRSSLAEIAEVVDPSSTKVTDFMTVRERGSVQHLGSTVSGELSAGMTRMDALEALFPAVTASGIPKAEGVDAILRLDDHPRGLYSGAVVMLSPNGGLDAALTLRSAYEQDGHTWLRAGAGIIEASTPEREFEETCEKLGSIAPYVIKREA
Method: The selected furan-based compounds were screened against Mab-SaS enzymatic activity at 100 µM (dissolved in a solution containing 10% DMSO). Assays were performed at subsaturating concentrations of chorismic acid (50 μM), as above. For the most promising compounds, the IC50 value was also determined.
To further verify the reliability of the inhibition results against Mab-SaS, we determined the IC50 of compound 1 in the presence of 0.1 mg/mL bovine serum albumin (BSA) or in the presence of 0.01% (v/v) Triton X-100 as a detergent. Moreover, to exclude an unspecific binding to cysteine residues, we also tested the IC50 with 100 μM of 1,4-dithio-DL-threitol (DTT).

Mab-SaS [3] = target: T1, Mab-SaS; experiment: Grating-Coupled Interferometry (GCI) binding analysis; design: species or system M. abscessus; conditions: 25 °C, 1:1 kinetic model
Method: The binding affinity and ligand efficiency of the furan-based library was evaluated by Grating-Coupled Interferometry (GCI). The analyses were performed by the Creoptix WAVE system (Malvern Panalytical, Malvern, UK). Borate buffer (100 mM sodium borate pH 9.0, 1 M NaCl) was used for chip conditioning. Experiments were carried out by reversibly capturing His-tagged Mab-SaS (50 μg/mL in running buffer, i.e., PBS, 0.05% Tween 20, 0.5% DMSO) on 4PCP-NTA WAVE chips, according to the manufacturer’s instructions, at a density of 3000 pg/mm^2.
Regeneration-free injections of a 1:2 dilution series in the 500–3 μM range for each compound of the furan-based library in running buffer were performed at 25 °C, using a flow rate of 100 μL/min.
A dimethyl sulfoxide (DMSO) calibration curve was used for bulk correction, and blank injections for double referencing. Data were analyzed and corrected using the Creoptix WAVE control software (correction applied: X and Y offset; DMSO calibration; double referencing). The processed data were fitted using the “1:1” kinetic model of the WAVE control software. All the experiments were performed in triplicate. Descriptive Statistical Analysis, as implemented in Microsoft Office Excel 10 (Microsoft Corporation, Redmond, WA, USA), was employed to calculate the mean of the obtained values of kon, koff, and KD as a measure of central tendency; standard deviations of the former values were computed as a measure of dispersion.

Mab = experiment: MIC evaluation by resazurin assay in iron-limiting conditions; format: cell-based, M. abscessus; conditions: Mycobacteroides abscessus, chelated Sauton's medium, highest concentration tested 500 μM, read-out: antimycobacterial activity (MIC)
Method: Exponentially growing primary cultures were diluted 1:10 in iron-depleted Sauton’s medium enriched with 10% OACD. The secondary Mab culture growing in iron-limiting conditions was then diluted to OD600 0.005 using iron-depleted Sauton’s medium. Each well of the 96-well plate was filled with 100 μL of the diluted cell suspension. For each plate, the first four wells of the first row were filled with the cellular suspension and no drug was added (negative control). The following four wells were filled with the cellular suspension and treated with the vehicle volume. The last four wells of the first row were filled with the cellular suspension and treated with 1 mg/mL Streptomycin (positive control). Only the first well of the other rows was filled with 200 μL of cell suspension. In this well, the highest concentration of compound 1 (500 µM) was added and then two-fold serially diluted. After 24 h of incubation at 37 °C, 10 μL/well of 0.01% resazurin was added. The plate was re-incubated at 37 °C for 24 h and then read out. Pink wells indicated bacterial viability, whereas wells with an unchanged blue color indicated cidality. The MIC was counted as the lowest compound concentration causing cidality.

M. bovis BCG = conditions: cited from earlier work
[4] = no additive, 50 μM chorismic acid, read-out: IC50

Compound	Km [1]	IC50 (Mab-SaS [2]; 100 μM DTT in the reaction mixture, read-out: IC50 in the presence of DTT)	inhibition at 100 µM (Mab-SaS [2]; 100 μM compound)	remaining activity at 100 µM (Mab-SaS [2]; 50 μM chorismic acid)	IC50 (Mab-SaS [2]; 0.1 mg/mL bovine serum albumin (PAIN analysis), read-out: IC50 in the presence of BSA)	IC50 (Mab-SaS [2]; 0.01% (v/v) Triton X-100 (PAIN analysis), read-out: IC50 in the presence of Triton X-100)	IC50 (Mab-SaS [2]; [4])	Kd (Mab-SaS [3])	koff (Mab-SaS [3])	kon (Mab-SaS [3])	MIC (Mab)	antimycobacterial activity on M. bovis BCG (M. bovis BCG)
Mab-SaS (Mycobacteroides abscessus ATCC 19977)	58 µM											
O=C(O)c1ccc(-c2ccc(C(F)(F)F)cc2C(F)(F)F)o1 [Compound 1, 5-(2,4-bis(trifluoromethyl)phenyl)furan-2-carboxylic acid]		6.1 ± 1.42 µM	98.8%	1.2 ± 2.8%	5.2 ± 0.68 µM	6.5 ± 0.56 µM	5.3 ± 1.5 µM	6.11 ± 0.16 µM	9.77e-05 s⁻¹	15.4 ± 5 M⁻¹ s⁻¹	> 500 µM	500 µM
Nc1cc([N+](=O)[O-])ccc1-c1ccc(C(=O)O)o1 [Compound 2, 5-(2-amino-4-nitrophenyl)furan-2-carboxylic acid]				2.3 ± 0.7%			23.6 ± 1.8 µM	12.7 ± 3.32 µM	0.00303 s⁻¹	244 ± 6200 M⁻¹ s⁻¹		
O=C(O)c1ccc(-c2cc(C(F)(F)F)cc(C(F)(F)F)c2)o1 [Compound 3, 5-(3,5-bis(trifluoromethyl)phenyl)furan-2-carboxylic acid]				15.6 ± 2.5%			29.5 ± 1.6 µM	67.5 ± 9.51 µM	0.00675 ± 6.1e-07 s⁻¹	100 ± 500 M⁻¹ s⁻¹		
